Values after ≈ are worked out from the molar mass of the structure shown.
Legend:
[1] = test system: Human immunodeficiency virus 1; experiment: Antiviral activity against wild type HIV1 3B infected in human TZM-bl cells after 4 days by ELISA; assay type: functional, organism-based; conditions: Human immunodeficiency virus 1, 3B, 96 h
TZM [2] = experiment: Cytotoxicity against human TZM-bl cells; assay type: functional
[3] = Selectivity index, ratio of CC50 for human TZM-bl cells to EC50 for wild type HIV1 3B infected in human TZM-bl cells; assay type: toxicity, cell-based; conditions: read-out: Selectivity Index
[4] = test system: Human immunodeficiency virus 1; experiment: Antiviral activity against HIV1 3B infected in human C8166 cells; assay type: functional, organism-based; conditions: Human immunodeficiency virus 1, 3B, C8166
[5] = test system: Human immunodeficiency virus 1; experiment: Antiviral activity against wild type HIV1 3B infected in human TZM-bl cells assessed as viral infection at 50 ug/ml after 1 hr relative to control; assay type: functional; conditions: Human immunodeficiency virus 1, 3B
TZM [6] = experiment: Cytotoxicity against human TZM-bl cells assessed as reduction in cell viability after 4 hrs by MTT assay; assay type: functional
[7] = test system: Human immunodeficiency virus 1; experiment: Antiviral activity against HIV1; assay type: functional, organism-based
[8] = test system: Human immunodeficiency virus 1; experiment: Antiviral activity against HIV1 3B after 48 hrs […]; assay type: functional, organism-based; conditions: Human immunodeficiency virus 1, 3B
[9] = test system: Human immunodeficiency virus 2; experiment: Antiviral activity against HIV2 ROD after 48 hrs […]; assay type: functional, organism-based; conditions: Human immunodeficiency virus 2, ROD
[10] = target: Human immunodeficiency virus type 1 reverse transcriptase (Human immunodeficiency virus 1, UniProt Q72547); experiment: Inhibition of HIV-1 reverse transcriptase after 1 hr by ELISA
C8166 = experiment: Cytotoxicity against human C8166 cells assessed as reduction in cell viability; assay type: functional, cell-based
[11] = Selectivity index, ratio of CC50 for human C8166 cells to EC50 for HIV1 3B infected in human C8166 cells; assay type: toxicity, cell-based; conditions: read-out: Selectivity Index
[12] = test system: Human immunodeficiency virus 1; experiment: Antiviral activity against wild type HIV1 3B infected in human MT4 cells using [3H]dGTP by radio-labelled binding assay; assay type: functional, organism-based; conditions: Human immunodeficiency virus 1, 3B
[13] = test system: Human immunodeficiency virus 1; experiment: Antiviral activity against HIV1 3B; assay type: functional, organism-based; conditions: Human immunodeficiency virus 1, 3B
[14] = test system: Human immunodeficiency virus 2; experiment: Antiviral activity against HIV2 ROD; assay type: functional, organism-based; conditions: Human immunodeficiency virus 2, ROD
[15] = target: T1, Human immunodeficiency virus type 2 integrase (Human immunodeficiency virus 2, UniProt P89582); experiment: Inhibition of wild type HIV-2 ROD9 integrase
T1 sequence (P89582 whole entry): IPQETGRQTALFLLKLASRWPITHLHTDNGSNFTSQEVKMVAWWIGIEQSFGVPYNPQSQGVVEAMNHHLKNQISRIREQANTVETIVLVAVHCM

[16] = Inhibition of HIV-2 ROD9 integrase E92Q mutant; parameters: species or system Human immunodeficiency virus 2
[17] = Inhibition of HIV-2 ROD9 integrase T97A mutant; parameters: species or system Human immunodeficiency virus 2
[18] = Inhibition of HIV-2 ROD9 integrase G140S mutant; parameters: species or system Human immunodeficiency virus 2
[19] = Inhibition of HIV-2 ROD9 integrase Y143C mutant; parameters: species or system Human immunodeficiency virus 2
[20] = Inhibition of HIV-2 ROD9 integrase Q148H mutant; parameters: species or system Human immunodeficiency virus 2
[21] = Inhibition of HIV-2 ROD9 integrase Q148R mutant; parameters: species or system Human immunodeficiency virus 2
[22] = Inhibition of HIV-2 ROD9 integrase N155H mutant; parameters: species or system Human immunodeficiency virus 2
[23] = Inhibition of HIV-2 ROD9 integrase E92Q/Y143C double mutant; parameters: species or system Human immunodeficiency virus 2
[24] = Inhibition of HIV-2 ROD9 integrase T97A/Y143C double mutant; parameters: species or system Human immunodeficiency virus 2
[25] = Inhibition of HIV-2 ROD9 integrase G140S/Q148R double mutant; parameters: species or system Human immunodeficiency virus 2
[26] = Inhibition of HIV-2 ROD9 integrase E92Q/N155H double mutant; parameters: species or system Human immunodeficiency virus 2
[27] = Inhibition of HIV-2 ROD9 integrase T97A/N155H double mutant; parameters: species or system Human immunodeficiency virus 2

`CC1OC(=O)c2ccccc2C1(Cl)c1ccc(C#Cc2ccccc2)cc1` (configuration not stated) gave an EC50 [1] of 242 µM, a CC50 (TZM [2]) of 215 µM and a selectivity ratio [3] of 0.9.

With `O=C(CC1(O)C(=O)Nc2ccc(Cl)cc21)c1ccccc1Cl` (configuration not stated) the IC50 [4] was 0.76 µM.

Work on `NC1=CNC(=O)/C1=N/Nc1ccc([N+](=O)[O-])cc1` yielded an inhibition at 50 µg/mL [5] of 91% and an Activity (TZM [6]) of 80%.

For `O=C(N[C@H]1C(=O)Nc2ccccc2C2CCCN21)OCc1ccccc1` (some centres not stated), the EC50 [7] was 0.86 µM.

For `Cc1ccccc1NC(=O)CSC1[Se]N=NC1c1ccc(Cl)c(Cl)c1` (configuration not stated), the EC50 [8] was 5.56 µM and the EC50 [9] was over 22.3 µM.

Molecule `CC1OC(=O)c2ccccc2C1(Cl)c1ccccc1` (configuration not stated) has an EC50 [1] of 29.3 µM, a CC50 (TZM [2]) of 293 µM and a selectivity ratio [3] of 10.

Work on `COc1ccc2c(c1)CCCN2CCC(=O)N1CCN(c2ccccc2C)CC1` yielded an IC50 [10] of 12.5 µM, an IC50 (C8166) of 114 µg/mL (≈ 291 µM) and a selectivity ratio [11] of 24.2.

`O=C(CSC1[Se]N=NC1c1ccc(Cl)c(Cl)c1)Nc1ccccc1Cl` (configuration not stated) showed an EC50 [8] of over 23.4 µM and an EC50 [9] of over 23.4 µM.

`COc1ccccc1C(=O)CC1(O)C(=O)Nc2ccc(Cl)cc21` (configuration not stated) gave an IC50 [10] of 0.27 µM.

For `COc1ccc2c(c1)CCCN2CCC(=O)N1CCN(c2ccccc2)CC1`, the IC50 [10] was 24.2 µM, the IC50 (C8166) was 83.2 µg/mL (≈ 219 µM) and the selectivity ratio [11] was 5.9.

In the case of `Cc1ccc(NC(=O)CSC2[Se]N=NC2c2ccc(Cl)c(Cl)c2)cc1` (configuration not stated), the EC50 [8] is reported as 6.65 µM and the EC50 [9] is reported as over 13.3 µM.

`CCCC1OC(=O)c2ccccc2C1(Cl)c1ccc(F)cc1` (configuration not stated) showed an EC50 [1] of 314 µM, a CC50 (TZM [2]) of 251 µM and a selectivity ratio [3] of 0.8.

For `CC(=O)c1ccc(NC(=O)CSC2[Se]N=NC2c2ccc(Cl)c(Cl)c2)c(Br)c1` (configuration not stated), the EC50 [8] was 2.45 µM and the EC50 [9] was over 18.9 µM.

In the case of `O=C(CSC1[Se]N=NC1c1ccc(Cl)c(Cl)c1)Nc1ccccc1F` (configuration not stated), the EC50 [8] is reported as over 26.9 µM and the EC50 [9] is reported as over 26.9 µM.

In the case of `Cn1ccc2c1S(=O)(=O)c1ccccc1NC2=O`, the EC50 [7] is reported as 14 µM.

Molecule `CCC1OC(=O)c2ccccc2C1(Cl)c1ccc(F)cc1` (configuration not stated) has an EC50 [1] of 126 µM, a CC50 (TZM [2]) of 263 µM and a selectivity ratio [3] of 2.1.

Molecule `Cc1ccc(NC(=O)CSC2[Se]N=NC2c2ccc(Cl)c(Cl)c2)c([N+](=O)[O-])c1` (configuration not stated) has an EC50 [8] of 5.42 µM and an EC50 [9] of over 26.3 µM.

In the case of `NC1=CNC(=O)/C1=N/Nc1cccc(Cl)c1`, the inhibition at 50 µg/mL [5] is reported as 93% and the Activity (TZM [6]) is reported as 52%.

In the case of `Cc1cccc(N2C(=O)CSC2c2c(Cl)cccc2Cl)n1` (configuration not stated), the IC50 [12] is reported as 0.044 µM.

Molecule `Cc1cccc(N2C(=O)CSC2c2c(F)cccc2Cl)n1` (configuration not stated) has an IC50 [12] of 0.053 µM.

`Cn1cc(C(=O)O)c(=O)c2ccc(N3CCN(c4ccccn4)CC3)nc21` gave an EC50 [13] of 0.62 µg/mL (≈ 1.7 µM) and an EC50 [14] of 0.55 µg/mL (≈ 1.51 µM).

`Cn1cc(C(=O)O)c(=O)c2ccc(N3CCN(c4cccc(C(F)(F)F)c4)CC3)nc21` showed an EC50 [13] of over 0.41 µg/mL and an EC50 [14] of over 0.41 µg/mL.

`Cn1cc(C(=O)O)c(=O)c2ccc(N3CCN(c4nccs4)CC3)nc21` showed an EC50 [13] of 3.15 µg/mL (≈ 8.48 µM) and an EC50 [14] of 0.922 µg/mL (≈ 2.48 µM).

For `Cn1cc(C(=O)O)c(=O)c2ccc(N3CCN(c4nc5ccccc5s4)CC3)nc21`, the EC50 [13] was 0.03 µg/mL (≈ 0.0712 µM) and the EC50 [14] was 0.02 µg/mL (≈ 0.0475 µM).

With `C[C@@H]1CCO[C@H]2Cn3cc(C(=O)NCc4ccc(F)cc4F)c(=O)c(O)c3C(=O)N12` [DOLUTEGRAVIR] the EC50 [15] was 0.0023 µM, the EC50 [16] was 0.0077 µM and the EC50 [17] was 0.0032 µM. It also gave an EC50 [18] of 0.0032 µM, an EC50 [19] of 0.0077 µM and an EC50 [20] of 0.0035 µM. For the same molecule, the EC50 [21] was 0.0057 µM, the EC50 [22] was 0.005 µM and the EC50 [23] was 0.015 µM. For the same molecule, the EC50 [24] was over 10 µM, the EC50 [25] was 0.108 µM and the EC50 [26] was 0.025 µM. The EC50 [27] was 0.027 µM.

With `Cc1cn([C@H]2C[C@H](N=[N+]=[N-])[C@@H](CO)O2)c(=O)[nH]c1=O` [ZIDOVUDINE] the IC50 (C8166) was 1570 µg/mL (≈ 5860 µM).

Reference: ChEMBL document CHEMBL4402520, “Synthetic routes and structure-activity relationships (SAR) of anti-HIV agents: A key review” (Eur J Med Chem, 2019)
